Data set [1] is described as follows: Steady state velocity of inhibitor concentration required to inhibit porcine pancreatic elastase was determined by using Dixon Plot. Details: species or system Sus scrofa.
Data set [2] can be described thus: Steady state velocity of inhibitor concentration required to inhibit porcine pancreatic elastase was determined by using Lineweaver-Burke Plot. Details: species or system Sus scrofa.
Data set [3] is described as follows: Hydrolytic stability was expressed as t1/2. Type of data set: physicochemical.

The record followed here is ChEMBL document CHEMBL1129890, “Synthesis and evaluation of dual action cephalosporins as elastase inhibitors” (Bioorg Med Chem Lett, 1997).

Structures are written as SMILES.

For orientation: IC50 means the concentration that inhibits the measured activity by half. Read a low IC50 as inhibition by little substance. As a reminder, the half-life is how long it takes for the measured level to halve. Read a low half-life as fast loss.

With `CC1=C(C(=O)OC(C)(C)C)N2C(=O)[C@H](Cl)C2S(=O)(=O)C1` (some centres undefined), the half-inhibitory concentration (IC50) in data set [1] was found to be 11 µM; in data set [2], 35000 nM.

As to `CO[C@H]1C(=O)N2C(C(=O)OC(C)(C)C)=C(COC(=O)Cc3ccccc3Nc3c(Cl)cccc3Cl)CS(=O)(=O)C12` (some centres undefined), in data set [3], the half-life is 3600 min. In data set [2], this compound showed an IC50 of 110 nM.

For `CO[C@H]1C(=O)N2C(C(=O)OC(C)(C)C)=C(C)CS(=O)(=O)C12` (some centres undefined), the half-maximal inhibitory concentration (IC50) amounted to 11 µM in data set [1] and 73000 nM in data set [2].

In data set [3], `CO[C@H]1C(=O)N2C(C(=O)OC(C)(C)C)=C(COC(=O)c3ccccc3OC(C)=O)CS(=O)(=O)C12` (some centres undefined) gave a half-life of 1140 min. In addition, the midpoint of inhibition in data set [2], the IC50, lay at 110 nM.

On to `CC(=O)Oc1ccccc1C(=O)OCC1=C(C(=O)OC(C)(C)C)N2C(=O)[C@H](Cl)C2S(=O)(=O)C1` (some centres undefined), for which the 50% inhibitory concentration (IC50) in data set [1] was 0.35 µM; in data set [2], 250 nM. Moreover, the half-life in data set [3] was 138 min.

Turning to `CC(C)(C)OC(=O)C1=C(COC(=O)Cc2ccccc2Nc2c(Cl)cccc2Cl)CS(=O)(=O)C2[C@@H](Cl)C(=O)N12` (some centres undefined), the IC50 in data set [1] was 0.68 µM; in data set [2], 180 nM. This compound also gave a half-life in data set [3] of 4380 min.
